Experimental data published in article PMC9558053, “Development of a novel high-throughput screen for the identification of new inhibitors of protein S-acylation” (The Journal of Biological Chemistry, 2022).

Molecular target: T1, human zDHHC2 (Homo sapiens, UniProt Q9UIJ5)
T1 construct: expressed in transfected cells; host or cells: HEK293T
T1 sequence (Q9UIJ5 1-367): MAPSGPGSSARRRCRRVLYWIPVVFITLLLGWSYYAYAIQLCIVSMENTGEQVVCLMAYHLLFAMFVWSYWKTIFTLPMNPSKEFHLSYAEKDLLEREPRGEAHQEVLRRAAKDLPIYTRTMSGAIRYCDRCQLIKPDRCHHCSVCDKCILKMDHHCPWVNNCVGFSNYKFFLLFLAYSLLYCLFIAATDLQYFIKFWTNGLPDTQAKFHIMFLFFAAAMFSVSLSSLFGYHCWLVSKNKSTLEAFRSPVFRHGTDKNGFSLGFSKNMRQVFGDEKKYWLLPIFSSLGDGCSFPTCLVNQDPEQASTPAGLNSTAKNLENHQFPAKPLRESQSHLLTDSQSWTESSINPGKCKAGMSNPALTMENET
Assay: GFP-SNAP25b S-acylation in HEK293T cells co-expressing zDHHC2, copper-catalyzed click chemistry, Western blot
Assay type: cell-based
Conditions: for inhibition at 25 µM: HEK-293T, compound 25 μM, 4 h preincubation + 4 h labeling, read-out: SNAP25 S-acylation inhibition (%), zDHHC2; for inhibition at 25 µM / zDHHC2-mediated substrate (SNAP25) S-acylation Hill slope / IC50: in cellulo HEK293T; for zDHHC2-mediated substrate (SNAP25) S-acylation Hill slope / IC50: Western blot; for IC50: read-out: zDHHC2-mediated substrate (SNAP25) S-acylation IC50 (95 CI); for GFP-SNAP25 S-acylation in cell-based assays, newly synthesized compounds: resynthesized (UoS) material vs original hits, Supplemental Fig. 2 (zD2, zD3, zD7, zD15, zD17)
Protocol: The inhibitory activity of TTZ-1 and TTZ-2 on cells expressing SNAP25 and zDHHC2 was also examined. Human embryonic kidney 293T (HEK293T) cells were transfected with plasmids encoding GFP-tagged SNAP25b and HA-tagged zDHHC2. Cells were then preincubated for 4 h with either dimethyl sulfoxide (DMSO) as a vehicle control or increasing concentrations of TTZ-1/TTZ-2 (diluted in serum-free medium) before being metabolically labeled for a further 4 h with C16:0-azide. Samples were then lysed and processed by copper-catalyzed click chemistry to reveal the extent of S-acylation.
Figure 5 Activity of TTZ-1 and TTZ-2 against SNAP25 S-acylation by human zDHHC2 expressed in mammalian cells. HEK293T cells were transfected with a plasmid encoding GFP-SNAP25b together with a plasmid encoding human zDHHC2 (+zD2) or a control plasmid pEF-BOS-HA. Cells were preincubated for 4 h with increasing concentrations of TTZ-1 (A) or TTZ-2 (B) or DMSO (as a control) before metabolic labeling with 100 μM C16:0-azide for another 4 h. Cells were lysed, and proteins having incorporated C16:0-azide were labeled by click chemistry with an alkyne-IR800 dye. Protein samples were then resolved by SDS-PAGE and transferred to nitrocellulose membranes that were probed with an anti-GFP antibody (IR680). Representative images are shown for cells treated with TTZ-1 (A) or TTZ-2 (B). Top panels, click chemistry signal (top panel, Click [IR800]) and GFP immunoblot (middle panel, GFP [IR680]). Positions of the molecular mass markers (in kilodalton) are indicated on the right side of the membranes. Bottom panels A and B, data from three independent experiments performed in duplicate were quantified, and the inhibition of GFP-SNAP25b S-acylation was determined as stated in the Experimental procedures section. Graphs show mean ± SEM of inhibition of normalized S-acylation (click signal/GFP signal) in the presence of each compound. Data were analyzed and fit to a nonlinear curve using the log(inhibitor) versus normalized response (variable slope) equation. DMSO, dimethyl sulfoxide; HA, hemagglutinin; HEK293T, human embryonic kidney 293T cell line; TTZ, tetrazole; zDHHC, zinc finger DHHC domain–containing protein.
HEK293T cells were plated on poly-D-lysine–coated 24-well plates (catalog no.: 356413; Corning BioCoat, VWR) and transfected with 2.4 μg of pEF-zDHHC2 plasmid (or the control empty plasmid pEF-BOS-HA) for the measurement of zDHHC2 autoacylation and 4.8 μl of Lipofectamine 2000 (Invitrogen). For substrate acylation, cells were transfected with 1.6 μg of pEF-zDHHC plasmid (or the control empty plasmid pEF-BOS-HA) together with 0.8 μg of EGFP-SNAP25b plasmid and 4.8 μl of Lipofectamine 2000. Twenty-four hours post-transfection, cells were washed once with PBS and preincubated with ONO or UoS compounds diluted in 250 μl of serum-free DMEM for 4 h. S-acylation labeling was then started by the addition of 50 μl of 600 μM of either unmodified palmitic acid C16:0 or C16:0-azide (final concentration of 100 μM) diluted in serum-free DMEM supplemented with 1 mg/ml fatty acid–free BSA (Sigma; catalog no.: A7030). Cells were labeled for 4 h, washed once with PBS, then lysed on ice in 100 μl of 50 mM Tris (pH 8) containing 0.5% SDS and protease inhibitors (Sigma; catalog no.: P8340). Conjugation of IR800 alkyne dye or mPEG5K alkyne to C16:0-azide was carried out for 1 h at room temperature with end-over-end rotation by adding an equal volume of freshly prepared click chemistry reaction mixture containing the following: 5 μM IRDye 800CW alkyne (catalog no.: 929-60002; Li-COR) or 200 μM of mPEG5K-alkyne (catalog no.: JKA3177; Sigma), 4 mM CuSO4 (catalog no.: 451657; Sigma), 400 μM Tris[(1-benzyl-1H-1,2,3-triazol-4-yl)methyl]amine (catalog no.: 678937; Sigma), and 8 mM ascorbic acid (catalog no.: A15613; Alpha Aesar) in distilled water. About 67 μl of 4 × SDS-PAGE sample buffer containing 100 mM DTT was then added to the 200 μl sample. […]

| Compound | inhibition at 25 µM | zDHHC2-mediated substrate (SNAP25) S-acylation Hill slope | IC50 | GFP-SNAP25 S-acylation in cell-based assays, newly synthesized compounds |
| --- | --- | --- | --- | --- |
| O=C(Nc1cccc2c1OC(c1nnn[nH]1)CN2)c1ccc(OCCCCc2ccccc2)cc1 (centres unmarked) [TTZ-2, N-(2-(1H-Tetrazol-5-yl)-3,4-dihydro-2H-benzo[b][1,4]oxazin-8-yl)-4-(4-phenylbutoxy)benzamide] | 84 ± 6% | 4.6 | 18.8 µM | results comparable to the original hit compounds |
| CCCCCCCOc1ccc(C(=O)Nc2cccc3c2OC(c2nnn[nH]2)CN3)cc1 (centres unmarked) [TTZ-1, N-(2-(1H-Tetrazol-5-yl)-3,4-dihydro-2H-benzo[b][1,4]oxazin-8-yl)-4-(heptyloxy)benzamide] | 113 ± 5% | 7.6 | 14.4 µM | results comparable to the original hit compounds |
